Measured values reported in US20110038867A1, “REMEDIES FOR PEMPHIGUS CONTAINING ANTI FAS LIGAND ANTIBODIES” (priority 2007, published 2011).
Peptide text beside a SMILES is read from it. * marks the point of attachment. Cbz = O=C(OCc1ccccc1)*; CH2F = FC*

B1: FasL: recombinant Fas ligand added to keratinocyte cultures (protein, UniProt P48023 130-281, looked up)
Tumor necrosis factor ligand …: QIGHPSPPPEKKELRKVAHLTGKSNSRSMPLEWEDTYGIVLLSGVKYKKGGLVINETGLYFVYSKVYFRGQSCNNLPLSHKVYMRNSKYPQDLVMMEGKMMSYCTTGQMWARSSYLGAVFNLTSADHLYVNVSELSLVNFEESQTFFGLYKL

Key:
human keratinocytes = test: Pemphigus sera-induced keratinocyte apoptosis, TUNEL staining; format: cell-based; settings: sera pretreated with anti-FasL neutralizing antibody (2.5 mg per ml for 30 min) or Z-IETD-FMK (100 μM for 30 min); FIG. 6
Procedure: As apoptotic keratinocytes are abundantly expressed in pemphigus, we wanted to explore whether pemphigus sera are capable of inducing apoptosis in normal human keratinocytes. To this purpose, keratinocytes were plated in chamber slides and cultured in serum-free medium (KGM) up to preconfluence. Cells were then cultured in keratinocyte basal medium and treated for 48 h with the addition of 25% serum from either untreated patients or patients treated with systemic corticosteroids. Sera from healthy subjects were used as controls. Apoptosis was evaluated by TUNEL staining in situ. Approximately 100 cells were evaluated, in randomly selected fields, and the percentage of TUNEL-positive cells was counted.
FasL is one of the major triggers of the caspase-8 activated extrinsic apoptotic pathway. Therefore, we wanted to evaluate whether this pathway plays a role in pemphigus apoptosis. To this purpose, patient sera were pretreated with anti-FasL neutralizing antibody or caspase-8 inhibitor, and added to keratinocyte cultures. Keratinocytes were cultured in KGM and treated with pemphigus sera or with sera from untreated patients. Sera were pretreated with anti-FasL neutralizing antibody (2.5 mg per ml for 30 min) or caspase-8 inhibitor Z-IETD-FMK (100 μM for 30 min). Apoptosis was evaluated by TUNEL staining.

keratinocytes [1] = test: Pemphigus sera-induced Dsg3 cleavage and caspase-8 activation in confluent keratinocytes, Western blotting; format: cell-based, human; settings: pretreatment with Z-IETD-FMK (100 μM for 30 min) or NOK2 15 μg/ml, then sera 72 hrs; FIG. 12A
Procedure: To investigate whether the extrinsic apoptotic pathway is responsible for dsg cleavage, we pretreated confluent keratinocytes with caspase-8 inhibitor Z-IETD-FMK (100 μM for 30 min) or with anti-FasL (NOK2, 15 μg/ml) Ab. Then cells were incubated for 72 hrs with healthy or untreated pemphigus sera. Protein extracts from the culture were analyzed by Western blotting using anti-Dsg3 antibodies and anti-caspase-8 Ab. Vinculin was used as internal control. (FIG. 12A).

keratinocytes [2] = test: Pemphigus sera-induced cell detachment (acantholysis) of confluent keratinocytes; format: cell-based, human; settings: pretreatment with Z-IETD-FMK (100 μM for 30 min) or NOK2 15 μg/ml, then sera 72 hrs; FIG. 12B
keratinocytes [3] = test: Treatment of keratinocytes with increasing amounts of FasL, Western blotting with anti-Dsg1 and anti-Dsg3; format: cell-based, human; settings: FasL 0.1, 10, 100 ng/ml for 72 hrs; FIG. 9
Procedure: Protein extracts from the culture were analyzed by Western blotting using anti-Dsg1 and anti-Dsg3 antibodies. β-actin was used as internal control. These doses are consistent with the ones detected in pemphigus sera (FIG. 9).

| Molecule | pemphigus sera-induced keratinocyte apoptosis (TUNEL staining) (human keratinocytes) | caspase-8 activation by untreated pemphigus sera (keratinocytes [1]) | dsg cleavage by untreated pemphigus sera (keratinocytes [1]) | cell detachment (i.e. acantholysis) by untreated pemphigus sera (keratinocytes [2]) | cleavage of dsgs (Dsg1, Dsg3) by FasL (keratinocytes [3]) |
| --- | --- | --- | --- | --- | --- |
| CC[C@H](C)[C@H](NC(=O)OCc1ccccc1)C(=O)N[C@@H](CCC(=O)OC)C(=O)N[C@H](C(=O)N[C@@H](CC(=O)OC)C(=O)CF)[C@@H](C)O [Z-IETD-FMK] (Cbz-IE(OMe)TD(OMe)-CH2F) | partially prevented | prevents both caspase-8 activation and dsg cleavage | prevents both caspase-8 activation and dsg cleavage | prevented |  |
| B1 |  |  |  |  | cleaved dsgs in a dose-dependent manner |
